This is an account of results in patent US20180136216A1, “Biomarkers for a Combination Therapy Comprising Lenvatinib and Everolimus” (EISAI R&D MANAGEMENT CO., LTD., priority 2015, published 2018).

The test has as its system metastatic renal cell carcinoma (RCC). As to the kind of experiment: Phase 2 study (NCT01136733) of lenvatinib, everolimus or the combination; baseline serum Ang2 versus OS and PFS. Type of test: in vivo, human. The procedure:
Purpose: A Phase 2 study for lenvatinib was performed in patients with metastatic renal cell carcinoma (RCC) following a VEGF-targeted therapy. The importance of angiogenesis in RCC highlights the need to understand clinical mechanisms of escape from anti-angiogenic therapy, such as everolimus. This clinical biomarker analysis was conducted to identify predictive markers of clinical benefit in RCC patients upon the combination therapy with lenvatinib and everolimus compared to everolimus monotherapy.
The purpose of this analysis was to measure Ang2 level in blood samples, such as serum, obtained from patients in clinical trials at both pre- and post-treatment with lenvatinib, everolimus or the combination thereof, and to identify blood biomarkers which can be used to predict whether patients will need the combination therapy.
Materials and Methods: Patients having metastatic renal cell carcinoma after a prior VEGF-targeted therapy received lenvatinib mesylate (“lenvatinib”), everolimus, or the combination thereof until disease progression or development of unmanageable toxicities. Patients received lenvatinib at a dose of 24 mg (as lenvatinib free base; the same shall apply hereinafter) oral once daily, everolimus at a dose of 10 mg oral once daily, or lenvatinib at 18 mg and everolimus at 5 mg oral once daily. 153 patients were treated and evaluated for efficacy and molecular correlative analysis. This study was a part of a Phase 2 multicenter study of lenvatinib (NCT01136733). Pre- and post-treatment serum samples were collected for biomarker analysis. Serum samples were collected on Cycle 1 Day 1 (pre-treatment), Cycle 2 Day 15, and Day 1 of every cycle from Cycle 2, and at off-treatment. Each Cycle consisted of 4 weeks (28 days). Ang2 detection enzyme immunoassay kit (EIDIA Co., Ltd.) was used for the quantification of serum Ang2 level. The association between the concentration at Cycle 1 Day 1 (“baseline level”) of Ang2 and clinical outcomes, such as progression free survival (PFS) and overall survival (OS), was assessed. PFS is defined as the time from the date of randomization to the date of first documentation of disease progression or death, whichever occurs first. PFS was based on investigator review data using RECIST 1.1. OS is defined as the time from randomization until death from any cause. “Randomization” means randomization of a patient into a test group or a control group when therapy plan for a patient is determined.

The mark [1] stands for this setting: low baseline Ang2 (≤3760 pg/ml).

Each structure is given as a SMILES string.

Take `CO[C@H]1C[C@@H]2CC[C@@H](C)[C@@](O)(O2)C(=O)C(=O)N2CCCC[C@H]2C(=O)O[C@H]([C@H](C)C[C@@H]2CC[C@@H](OCCO)[C@H](OC)C2)CC(=O)[C@H](C)/C=C(\C)[C@@H](O)[C@@H](OC)C(=O)[C@H](C)C[C@H](C)/C=C/C=C/C=C/1C` [everolimus, (1R,9S,12S,15R,16E,18R,19R,21R,23S,24E,26E,28E,30S,32S,35R)-1,18-dihydroxy-12-{(1R)-2-[(1S,3R,4R)-4-(2-hydroxyethoxy)-3-methoxycyclohexyl]-1-methylethyl}-19,30-dimethoxy-15,17,21,23,29,35-hexamethyl-11,36-dioxa-4-aza-tricyclo[30.3.1.0^4,9]hexatriaconta-16,24,26,28-tetraene-2,3,10,14,20-pentaone]: the “median PFS” value is reported as 5.5 months (high baseline Ang2 (>3760 pg/ml)) and 5.6 months under setting [1]. Besides, the “median OS” value reads like this: (high baseline Ang2 (>3760 pg/ml, 33rd percentile cut-off)) 12.2 months; (higher baseline Ang2, 25th percentile cut-off (3565 pg/ml)) 12.2 months; (higher baseline Ang2, 70th percentile cut-off (5650 pg/ml)) 12.2 months; under setting [1], “not reached”.
